Among the data in ChEMBL document CHEMBL3779803, “α-Glucosidase Inhibitory Prenylated Anthranols from Harungana madagascariensis” (J Nat Prod, 2016) are IC50 and inhibition values, retold here.

Biological target in the first assay: not listed separately
Briefly: Inhibition of Saccharomyces cerevisiae alpha-glucosidase using p-nitrophenyl-alpha-D-glucoside as substrate measured for 40 mins by spectrophotometric analysis.
As to `CC(C)=CCc1c(C)cc(O)c2c1C(O)c1c(CC=C(C)C)c(O)cc(O)c1C2=O` (stereo not drawn), the IC50 turned out to be 44.1 µM.

Molecule `CC(C)=CCc1c(C)cc(O)c2c1[C@@H](O)c1c3c(cc(O)c1C2=O)O[C@@H](C(C)(C)O)C3` showed an IC50 of 207 µM.

`CC(C)=CCc1c(C)cc(O)c2c(O)c3c(cc12)C(CC=C(C)C)(CC=C(C)C)C(O)=CC3=O` [HARUNGANIN] gave a half-maximal inhibitory concentration (IC50) of 37.7 µM. This IC50 lies about 5.5-fold lower than the previous one.

Take `C[C@@H]1O[C@@H](O[C@@H]2[C@@H](O)[C@H](O)[C@H](O[C@H]3[C@H](O)[C@@H](O)C(O)O[C@@H]3CO)O[C@H]2CO)[C@@H](O)[C@H](O)[C@H]1N[C@H]1C=C(CO)[C@@H](O)[C@H](O)[C@H]1O` (stereo partly drawn): half-maximal inhibition (IC50) was put at 120 µM.

In turn, `CC(C)=CCc1c(C)cc(O)c2c1[C@@H](O)c1c3c(cc(O)c1C2=O)OC(C)(C)[C@@H](O)C3` displayed a half-maximal inhibitory concentration (IC50) of 36.9 µM. Against the preceding molecule, the IC50 is about 3.3-fold lower.

Take `Cc1cc(O)c2c3c1[C@H](O)[C@@H]1O[C@]3(OC1(C)C)c1c3c(cc(O)c1C2=O)O[C@@H](C(C)(C)O)C3`: the IC50 amounted to 117 µM.

As to `CC(C)=CCc1c(C)cc2cc3c(c(O)c2c1O)C(=O)C(CC1=C(O)C(CC=C(C)C)(CC=C(C)C)c2cc4cc(C)c(CC=C(C)C)c(O)c4c(O)c2C1=O)=C(O)C3(CC=C(C)C)CC=C(C)C`, the IC50 amounted to 1.2 µM.

For a further assay, the system named is Saccharomyces cerevisiae. In words: Inhibition of Saccharomyces cerevisiae alpha-glucosidase at 5 uM using p-nitrophenyl-alpha-D-glucoside as substrate measured for 40 mins by spectrophotometric analysis.
In the case of `CC(C)=CCc1c(C)cc2cc3c(c(O)c2c1O)C(=O)C=C(O)C3(CC=C(C)C)CC=C(C)C`, the inhibition worked out at 47%.

Usually IC50 stands for the concentration needed to halve the response being measured. Higher therefore signals a need for much substance. By inhibition is commonly meant the share of the control response that was lost under treatment. Low readings indicate little suppression, high ones strong suppression.
